In patent US12630785B2, “Liquid fabric care compositions comprising capsules” (The Procter & Gamble Company, priority 2020, dated 2026):
One block for each molecule: values may come before it.

Experiment: Capsule perfume leakage in liquid fabric enhancer (LFE), headspace SPME GC/MS
Format: physicochemical
Details: LFE Composition 1
Description: The testing of capsule leakage in liquid compositions (e.g., liquid fabric enhancer/“LFE” compositions and/or heavy-duty liquid/“HDL” detergents) is performed as follows. […] The 1 gram aliquot in the 7 ml vial is then mixed on a stirring plate for 24 h at 500 rpm, thereby ensuring that the capsules are broken by the grinding action of the stir bar against the bottom of the 7 ml vial. Optical microscopy can be used to verify that no more intact capsules remain. In case such capsules are found, the step is to repeated for an additional 24 h, or until all or almost all capsules are broken. Then, the formulation containing broken capsules is introduced into GC vials in a similar manner as for step (a). This yields total oil samples. […] It is to be noted that the capsule sample and the total oil sample are not analyzed on the same day, as there is a need to prepare the total oil sample after the capsule sample has been removed from storage. […] The perfume oil composition formulated herein is representative of the perfume oil composition that is present in the slurry. Then the free oil formulation is introduced into GC vials in a similar manner as for step (a). This yields reference samples, which must be used when analyzing both the capsule sample and the total oil sample. […] Two headspace vials are prepared for each sample. The sealed headspace vials are then allowed to equilibrate. Samples reach equilibrium after 3 hours at room temperature, but can be left to sit longer without detriment or change to the results, up until 24 hours after sealing the headspace vial. After equilibrating, the samples are analyzed by GC/MS. […] The perfume composition is analyzed by fast GC/MS in full scan mode. Ion extraction of the specific mass for each component is obtained. The leakage is calculated as follows, separately for the capsule sample and total oil sample, where “Area” denotes the area under the chromatogram peak corresponding to the PRM of interest: Once calculated for all PRMs for both the total oil sample and the capsule sample, the corrected PRM leakage can be calculated using the following formula: Once the corrected PRM leakage has been calculated for all PRMs, the Average leakage can be found by taking the arithmetic mean of each corrected PRM leakage. […] The resulting products are stored for one week at 35° C. At the end of the storage period, samples of each product composition are analyzed for perfume leakage out of the capsule using headspace analysis. The data is reported as a percentage, determined by comparing the amount of the individual perfume raw materials found in the headspace to the amount originally provided to the capsules.

[1] = PRM of Perfume 4 out of Comparative Example 9-1 capsules (per EP3078415A)
[2] = PRM of Perfume 4 out of Comparative Example 9-2 capsules (per EP3078415A, additional TEOS)
[3] = PRM of Perfume 4 out of Example 9-1 capsules (Sample E)
[4] = PRM of Perfume 3 out of Capsule Sample D
[5] = PRM of Perfume 2 out of Capsule Sample C

- Leakage (as %) after 1 week at 35° C. [4]: 8%
Structure (SMILES): CC1=CC(C)C(C=O)CC1 (stereo not drawn) [Ligustral-1]

- Leakage (as %) after 1 week at 35° C. [4]: 7%
Structure (SMILES): CC(=O)OC(C)c1ccccc1 (stereo not drawn) [Methyl phenyl carbinyl acetate]

- Leakage (as %) after 1 week at 35° C. [5]: 5%
Structure (SMILES): COC(=O)OC1CC/C=C\CCC1 (stereo not drawn) [[(4Z)-1-cyclooct-4-enyl] methyl carbonate]

- Leakage (as %) after 1 week at 35° C. [4]: 10%
Structure (SMILES): CC1=CCC(C(C)(C)O)CC1 (stereo not drawn) [alpha-Terpineol]

- Leakage (as %) after 1 week at 35° C. [5]: 3%
Structure (SMILES): CCOC(=O)C1CCC(C(=O)OCC)CC1 (stereo not drawn) [diethyl 1,4-cyclohexane dicarboxylate]

Second part, the molecule before the results:

Structure (SMILES): CCCCCCOC(=O)c1ccccc1O [Hexyl Salicylate]
- Leakage (as %) after 1 week at 35° C. [1]: 34%
- Leakage (as %) after 1 week at 35° C. [2]: 28%
- Leakage (as %) after 1 week at 35° C. [3]: 3%

Structure (SMILES): CCCCCC/C(C=O)=C\c1ccccc1 [Hexylcinnamyl aldehyde]
- Leakage (as %) after 1 week at 35° C. [1]: 22%
- Leakage (as %) after 1 week at 35° C. [2]: 36%
- Leakage (as %) after 1 week at 35° C. [3]: 7%

Structure (SMILES): CC(C=O)Cc1ccc(C(C)(C)C)cc1 (stereo not drawn) [Lilial]
- Leakage (as %) after 1 week at 35° C. [1]: 46%
- Leakage (as %) after 1 week at 35° C. [2]: 61%
- Leakage (as %) after 1 week at 35° C. [3]: 30%

Structure (SMILES): CCCCCCCCCC(C)C=O (stereo not drawn) [Methyl nonyl acetaldehyde]
- Leakage (as %) after 1 week at 35° C. [4]: 4%

Structure (SMILES): CC(C)=CC1CC(C)CCO1 (stereo not drawn) [Rose Oxide]
- Leakage (as %) after 1 week at 35° C. [4]: 8%

Structure (SMILES): CCC=C(C)C(O)CCCCC (stereo not drawn) [Undecavertol]
- Leakage (as %) after 1 week at 35° C. [4]: 11%

Structure (SMILES): CC(=O)/C=C/C1=C(C)CCCC1(C)C [beta ionone]
- Leakage (as %) after 1 week at 35° C. [4]: 5%
